Measured values: PubChem BioAssay AID1918935 (Molecular Pharmacology Branch, DTP, NCI, 2023)
“And” between values parts separate entries of the source, which are not always exact repeats. Equal values may be shown once.

Test system: 324938-238-R-J1-PDC complex spheroid viability
Assay: Anticancer human tumor 324938-238-R-J1-PDC patient-derived bladder carcinoma cell line growth inhibition
Conditions: for viability, T/C: stronger effect = lower value
Method in brief: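 Drug combinations with the LSD1 inhibitor iadademstat tested on tumor cells co-cultured as spheroids with endothelial cells and mesenchymal stem cells. Concentrations descended in half-log increments from clinical Cmax or 10 microM.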

[1] = curve of first compound, second compound 0.1 µM
[2] = curve of first compound, second compound 0.316 µM
[3] = curve of first compound, second compound 1 µM
[4] = curve of first compound, second compound 3.16 µM
[5] = curve of first compound, second compound 10 µM
[6] = second compound 0.1 µM, first compound 0.0316 µM
[7] = second compound 0.1 µM, first compound 0.1 µM
[8] = second compound 0.1 µM, first compound 0.316 µM
[9] = second compound 0.1 µM, first compound 1 µM
[10] = second compound 0.316 µM, first compound 0.0316 µM
[11] = second compound 0.316 µM, first compound 0.1 µM
[12] = second compound 0.316 µM, first compound 0.316 µM
[13] = second compound 0.316 µM, first compound 1 µM
[14] = second compound 1 µM, first compound 0.0316 µM
[15] = second compound 1 µM, first compound 0.1 µM
[16] = second compound 1 µM, first compound 0.316 µM
[17] = second compound 1 µM, first compound 1 µM
[18] = second compound 3.16 µM, first compound 0.0316 µM
[19] = second compound 3.16 µM, first compound 0.1 µM
[20] = second compound 3.16 µM, first compound 0.316 µM
[21] = second compound 3.16 µM, first compound 1 µM
[22] = second compound 10 µM, first compound 0.0316 µM
[23] = second compound 10 µM, first compound 0.1 µM
[24] = second compound 10 µM, first compound 0.316 µM
[25] = second compound 10 µM, first compound 1 µM
[26] = second compound 0.1 µM, first compound 3.16 µM
[27] = second compound 0.1 µM, first compound 10 µM
[28] = second compound 0.316 µM, first compound 3.16 µM
[29] = second compound 0.316 µM, first compound 10 µM
[30] = second compound 1 µM, first compound 3.16 µM
[31] = second compound 1 µM, first compound 10 µM
[32] = second compound 3.16 µM, first compound 3.16 µM
[33] = second compound 3.16 µM, first compound 10 µM
[34] = second compound 10 µM, first compound 3.16 µM
[35] = second compound 10 µM, first compound 10 µM
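Note: spheroids also contain HUVEC and human MSCs and agents combined with iadademstat; spheroids exposed to agents for 7 days before readout.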

## Nc1ccn(C2OC(CO)C(O)C2(F)F)c(=O)n1 (centres undefined) + NC1CC1c1ccc(-c2cccc(O)c2)cc1
[1]
  IC50: < 0.949 nM
[2]
  IC50: < 0.949 nM
[3]
  IC50: < 0.949 nM
[4]
  IC50: < 0.949 nM
[5]
  IC50: < 0.949 nM
Second compound 0.1 µM, first compound 0.000949 µM
  viability, T/C: 11.1%
Second compound 0.1 µM, first compound 0.003 µM
  viability, T/C: 8.09%
Second compound 0.1 µM, first compound 0.00949 µM
  viability, T/C: 6.87%
Second compound 0.1 µM, first compound 0.03 µM
  viability, T/C: 6.29%
Second compound 0.1 µM, first compound 0.0949 µM
  viability, T/C: 6.35%
Second compound 0.1 µM, first compound 0.3 µM
  viability, T/C: 5.04%
Second compound 0.316 µM, first compound 0.000949 µM
  viability, T/C: 10.9%
Second compound 0.316 µM, first compound 0.003 µM
  viability, T/C: 7.27%
Second compound 0.316 µM, first compound 0.00949 µM
  viability, T/C: 5.74%
Second compound 0.316 µM, first compound 0.03 µM
  viability, T/C: 5.98%
Second compound 0.316 µM, first compound 0.0949 µM
  viability, T/C: 5.39%
Second compound 0.316 µM, first compound 0.3 µM
  viability, T/C: 5.59%
Second compound 1 µM, first compound 0.000949 µM
  viability, T/C: 11%
Second compound 1 µM, first compound 0.003 µM
  viability, T/C: 7.32%
Second compound 1 µM, first compound 0.00949 µM
  viability, T/C: 5.8%
Second compound 1 µM, first compound 0.03 µM
  viability, T/C: 6.74%
Second compound 1 µM, first compound 0.0949 µM
  viability, T/C: 5.16%
Second compound 1 µM, first compound 0.3 µM
  viability, T/C: 4.64%
Second compound 3.16 µM, first compound 0.000949 µM
  viability, T/C: 10.4%
Second compound 3.16 µM, first compound 0.003 µM
  viability, T/C: 6.79%
Second compound 3.16 µM, first compound 0.00949 µM
  viability, T/C: 7.61%
Second compound 3.16 µM, first compound 0.03 µM
  viability, T/C: 5.95%
Second compound 3.16 µM, first compound 0.0949 µM
  viability, T/C: 5.45%
Second compound 3.16 µM, first compound 0.3 µM
  viability, T/C: 5.23%
Second compound 10 µM, first compound 0.000949 µM
  viability, T/C: 15.8%
Second compound 10 µM, first compound 0.003 µM
  viability, T/C: 11.2%
Second compound 10 µM, first compound 0.00949 µM
  viability, T/C: 10.4%
Second compound 10 µM, first compound 0.03 µM
  viability, T/C: 7.49%
Second compound 10 µM, first compound 0.0949 µM
  viability, T/C: 5.31%
Second compound 10 µM, first compound 0.3 µM
  viability, T/C: 5.65%

## COc1cc(Nc2ncc3c(n2)-c2ccc(Cl)cc2C(c2c(F)cccc2OC)=NC3)ccc1C(=O)O + NC1CCC(NC2CC2c2ccccc2)CC1
[1]
  IC50: 20.8 nM
[2]
  IC50: 18.8 nM
[3]
  IC50: 18.5 nM
[4]
  IC50: 15.4 nM
[5]
  IC50: 20.7 nM
Second compound 0.1 µM, first compound 0.00316 µM
  viability, T/C: 75.9%
Second compound 0.1 µM, first compound 0.01 µM
  viability, T/C: 67.5%
[6]
  viability, T/C: 39.9%
[7]
  viability, T/C: 23%
[8]
  viability, T/C: 20.4%
[9]
  viability, T/C: 17.9%
Second compound 0.316 µM, first compound 0.00316 µM
  viability, T/C: 79.8%
Second compound 0.316 µM, first compound 0.01 µM
  viability, T/C: 65.7%
[10]
  viability, T/C: 37.4%
[11]
  viability, T/C: 20.5%
[12]
  viability, T/C: 18.3%
[13]
  viability, T/C: 20.9%
Second compound 1 µM, first compound 0.00316 µM
  viability, T/C: 73.3%
Second compound 1 µM, first compound 0.01 µM
  viability, T/C: 63.5%
[14]
  viability, T/C: 38.5%
[15]
  viability, T/C: 19.6%
[16]
  viability, T/C: 21.9%
[17]
  viability, T/C: 19.4%
Second compound 3.16 µM, first compound 0.00316 µM
  viability, T/C: 74.2%
Second compound 3.16 µM, first compound 0.01 µM
  viability, T/C: 56.1%
[18]
  viability, T/C: 39.9%
[19]
  viability, T/C: 24.9%
[20]
  viability, T/C: 21.7%
[21]
  viability, T/C: 21.2%
Second compound 10 µM, first compound 0.00316 µM
  viability, T/C: 70.7%
Second compound 10 µM, first compound 0.01 µM
  viability, T/C: 65.3%
[22]
  viability, T/C: 40%
[23]
  viability, T/C: 31%
[24]
  viability, T/C: 22.7%
[25]
  viability, T/C: 23.1%

## CCN(c1cc(-c2ccc(CN3CCOCC3)cc2)cc(C(=O)NCc2c(C)cc(C)[nH]c2=O)c1C)C1CCOCC1
Compound 0.00949 µM
  viability, T/C: 100% and 111%
Compound 0.03 µM
  viability, T/C: 105%
Compound 0.0949 µM
  viability, T/C: 96.9% and 101%
Compound 0.3 µM
  viability, T/C: 96.7% and 97.5%
Compound 0.949 µM
  viability, T/C: 94.5% and 98.9%
Compound 3 µM
  viability, T/C: 91.2% and 99%
Curve of compound
  IC50: > 3000 nM

## COc1ccc([C@@H](O)c2cc(-c3ncnc4cc(N5CCOCC5)ccc34)c(F)cc2Cl)nn1 + NC1CC1c1ccc(-c2cccc(O)c2)cc1
[1]
  IC50: 1440 nM
[2]
  IC50: 481 nM
[3]
  IC50: 411 nM
[4]
  IC50: 313 nM
[5]
  IC50: 439 nM
[6]
  viability, T/C: 82.3%
[7]
  viability, T/C: 77.6%
[8]
  viability, T/C: 65.2%
[9]
  viability, T/C: 54%
[26]
  viability, T/C: 41.5%
[27]
  viability, T/C: 25.7%
[10]
  viability, T/C: 71.3%
[11]
  viability, T/C: 61.8%
[12]
  viability, T/C: 52%
[13]
  viability, T/C: 45.7%
[28]
  viability, T/C: 34.9%
[29]
  viability, T/C: 25%
[14]
  viability, T/C: 63.6%
[15]
  viability, T/C: 60.5%
[16]
  viability, T/C: 49.6%
[17]
  viability, T/C: 43.2%
[30]
  viability, T/C: 37.5%
[31]
  viability, T/C: 23.4%
[18]
  viability, T/C: 62.6%
[19]
  viability, T/C: 59.4%
[20]
  viability, T/C: 49.4%
[21]
  viability, T/C: 39.7%
[32]
  viability, T/C: 35.3%
[33]
  viability, T/C: 25.6%
[22]
  viability, T/C: 64.2%
[23]
  viability, T/C: 60.2%
[24]
  viability, T/C: 55.6%
[25]
  viability, T/C: 38.5%
[34]
  viability, T/C: 32.7%
[35]
  viability, T/C: 21.8%

## CC(C)c1c(-c2ccccc2)nc2c(C#N)c[nH]n2c1=O + NC1CC1c1ccc(-c2cccc(O)c2)cc1
[1]
  IC50: > 10000 nM
[2]
  IC50: > 10000 nM
[3]
  IC50: > 10000 nM
[4]
  IC50: > 10000 nM
[5]
  IC50: > 10000 nM
[6]
  viability, T/C: 104%
[7]
  viability, T/C: 98.2%
[8]
  viability, T/C: 101%
[9]
  viability, T/C: 94%
[26]
  viability, T/C: 90.8%
[27]
  viability, T/C: 72.6%
[10]
  viability, T/C: 82.9%
[11]
  viability, T/C: 84.9%
[12]
  viability, T/C: 87.2%
[13]
  viability, T/C: 82.6%
[28]
  viability, T/C: 88.7%
[29]
  viability, T/C: 79.1%
[14]
  viability, T/C: 85.7%
[15]
  viability, T/C: 99.3%
[16]
  viability, T/C: 85.4%
[17]
  viability, T/C: 89.1%
[30]
  viability, T/C: 81.7%
[31]
  viability, T/C: 81%
[18]
  viability, T/C: 86.7%
[19]
  viability, T/C: 92.1%
[20]
  viability, T/C: 86.5%
[21]
  viability, T/C: 89.7%
[32]
  viability, T/C: 82.7%
[33]
  viability, T/C: 77.3%
[22]
  viability, T/C: 89.5%
[23]
  viability, T/C: 85.4%
[24]
  viability, T/C: 86.9%
[25]
  viability, T/C: 88.9%
[34]
  viability, T/C: 89.3%
[35]
  viability, T/C: 80.8%

## NS(=O)(=O)OCC1CC(n2ccc3c(NC4CCc5ccccc54)ncnc32)CC1O (centres undefined)
Compound 0.00949 µM
  viability, T/C: 103% and 106%
Compound 0.03 µM
  viability, T/C: 106% and 112%
Compound 0.0949 µM
  viability, T/C: 93.4% and 94%
Compound 0.3 µM
  viability, T/C: 54.2% and 43.8%
Compound 0.949 µM
  viability, T/C: 12.5% and 10.2%
Compound 3 µM
  viability, T/C: 15.6% and 11.9%
Curve of compound
  IC50: 326 nM and 256 nM
